These results are taken from ChEMBL document CHEMBL5584289, “Molecular understanding of the therapeutic potential of melanin inhibiting natural products” (RSC Med Chem, 2024).

Each structure is given as a SMILES string. Converted amounts (≈) assume the structure as drawn. Peptide text beside a SMILES is read from it.

A short description of data set [1]: Acute toxicity in zebrafish embryos assessed as lethal concentration compound measured for every 24 hrs in 96 hrs. Set-up: species or system Danio rerio. As to conditions: in vivo.
A short description of data set [2]: Inhibition of Artocarpus chama tyrosinase.
The target of data set [3] is T1, Mushroom tyrosinase (Agaricus bisporus) (UniProt O42713+Q00024+C7FF04+C7FF05). The data set can be described thus: Inhibition of mushroom tyrosinase at 25 uM using L-tyrosine as substrate incubated for 30 mins relative to control. It is filed as protein assay.
In data set [4] the target is T2, Mushroom tyrosinase (Agaricus bisporus, UniProt O42713+Q00024+C7FF04+C7FF05). The data set is described as follows: Inhibition of mushroom tyrosinase monophenolase activity. It is filed as protein assay.
Data set [5] in a line: Antioxidant activity assessed as DPPH radical scavenging activity. It is filed as functional. For orientation: Loss of DPPH colour is used to gauge radical scavenging.
The nature of data set [6]: Antioxidant activity assessed as hydroxyl radical scavenging activity at 10 uM. The format is functional.
Data set [7] is described as follows: Antioxidant activity assessed as interaction reducing activity with DPPH at 10 uM measured after 1 hr by absorbance based assay. It is filed as functional.
Data set [8] has as its system B16-F10. The data set can be described thus: Cytotoxicity against mouse B16-F10 cells assessed as reduction in cell viability at 15 uM incubated for 72 hrs relative to control. The format is functional.
Data set [9] deals with T1, Mushroom tyrosinase (Agaricus bisporus). The data set is described as follows: Inhibition of mushroom tyrosinase at 50 ug/ml relative to control. It is filed as protein assay. As to conditions: dose 50.0 µg/ml.
Data set [10] is described as follows: Antioxidant activity assessed as DPPH radical scavenging activity measured after 30 mins. It is filed as functional.
Data set [11] in a line: Antioxidant activity assessed as ABTS radical scavenging activity. The format is functional.
In data set [12] the target is T2, Mushroom tyrosinase. The data set can be described thus: Inhibition of mushroom tyrosinase. It is filed as protein assay.
A further data set relates to MNT-1. The data set can be described thus: Antiproliferative activity against human MNT-1 cells assessed as reduction in cell viability incubated for 72 hrs by MTT assay. The following applies: MNT-1, 72 h. The format is functional, cell-based. In general terms: Tetrazolium dyes change colour on reduction, which living cells bring about.
Data set [13] deals with T2, Mushroom tyrosinase. The data set can be described thus: Inhibition of mushroom tyrosinase diphenolase activity. It is filed as protein assay.
The subject of a further data set is B16. The data set can be described thus: Cytotoxicity against mouse B16 cells assessed as inhibition of cell proliferation incubated for 48 hrs by MTS assay. The format is functional, cell-based. The following applies: B16, 48 h.
The target of data set [14] is T1, Mushroom tyrosinase (Agaricus bisporus). The data set can be described thus: Inhibition of mushroom tyrosinase at 12.5 ug/ml using L-DOPA as substrate relative to control. As to conditions: dose 12.5 µg/ml. It is filed as protein assay.
Data set [15] shares this target. The data set can be described thus: Inhibition of mushroom tyrosinase monophenolase activity at 12.5 ug/ml using L-tyrosine as substrate relative to control. The format is protein assay. The following applies: dose 12.5 µg/ml.
Data set [16] relates to B16-F10. The data set can be described thus: Cytotoxicity against mouse B16-F10 cells. The format is functional, cell-based.
Data set [17] has as its system B16-F10. The data set is described as follows: Antimelanogenic activity against alpha-MSH-stimulated mouse B16-F10 cells assessed as intracellular melanin production level at 10 uM pre-incubated for 1 hrs followed by alph-MSH stimulation and measured after 72 hrs by microplate reader analysis. It is filed as functional. As to conditions: time 73 hrs.

The term LC50 denotes the concentration lethal to half of the exposed cells or organisms. Regarding `COc1c(O)c(OC)c2c(oc3c(O)cccc32)c1OC`, the LC50 at 24 h in [1] stood at 4 µg/mL (≈ 13.8 µM).
For the compound `COc1cc2c(oc3c(O)cccc32)c(OC)c1OC`, in data set [1], the LC50 at 24 h is 37 µg/mL (≈ 135 µM).
As usually defined, the IC50 is the concentration that inhibits the measured activity by half. With `COc1cc(O)c2c(c1)OC(c1ccc(O)cc1O)CC2=O` (stereo unspecified), the IC50 in [2] amounted to 38.78 µg/mL (≈ 128 µM).
As usually defined, the inhibition is the percentage by which the read-out fell short of the control. Regarding `C[C@@]12C[C@@]3(O)O[C@@H](O1)[C@]1(COC(=O)c4ccccc4)[C@H]3C[C@@]12O[C@@H]1O[C@H](COC(=O)c2cc(O)c(O)c(O)c2)[C@@H](O)[C@H](O)[C@H]1O`, the inhibition in [3] came out at 94.9%. The compound also returned an IC50 on Mushroom tyrosinase [4] of 0.17 µM.
Turning to `CC(=O)CC(=O)c1ccc(O)c(O)c1`, the IC50 in data set [5] (read-out: IC50) is 11.3 µM; in data set [6], 9.3 µM; in data set [7], 69.1 µM.
With `COc1ccc2c(c1)oc1c(OC)c(O)c(OC)cc12`, in [1], the LC50 at 24 h stood at 30 µg/mL (≈ 109 µM).
Turning to `COc1cc2c(cc1O)[C@@H]1COc3cc(O)ccc3[C@@H]1O2`, the Activity in the data set on B16-F10 [8] stood at 14%.
`O=C(O)CC(OC(=O)/C=C/c1ccc(O)cc1)C(=O)O` (stereo unspecified) gave an inhibition in data set [9] of 16.3%.
With `NCCCC[C@H](NC(=O)[C@H](Cc1cnc[nH]1)NC(=O)CN)C(=O)O` (H-Gly-His-Lys-OH), in data set [1], the LC50 at 24 h turned out to be 30 µg/mL (≈ 88.1 µM).
Consider `O=C1O[C@H]([C@@H](O)CO)C(O)=C1O` [ASCORBIC ACID], for which the half-inhibitory concentration (IC50) in [5] was determined as 67.45 µg/mL; in [10] it was 5.65 µg/mL (≈ 32.1 µM); in data set [11] it was 44.62 µg/mL (≈ 253 µM).
Regarding `O=C(/C=C/c1ccc(O)c(O)c1)OC(C(=O)O)C(O)C(=O)O` (stereo unspecified) [CAFFEOYLTARTARIC ACID], the IC50 against Mushroom tyrosinase [12] amounted to 30 µM.
Consider `COc1cc(O)c2c(=O)c(-c3ccc(O)cc3O)coc2c1` [CAJANIN], for which, in the data set with MNT-1, the IC50 worked out at 1000 nM.
In the case of `Oc1cc(O)c2c(c1)O[C@H](c1ccc(O)c(O)c1)[C@@H](O)C2` [CIANIDANOL], the IC50 at Mushroom tyrosinase [4] came out at 0.06 µM; on Mushroom tyrosinase [13] it was 0.07 µM.
On to `CC1(C)[C@@H](O)CC[C@]2(C)[C@H]3C(=O)C=C4[C@@H]5C[C@@](C)(C(=O)O)CC[C@]5(C)CC[C@@]4(C)[C@]3(C)CC[C@@H]12` [ENOXOLONE], for which the IC50 in data set [5] stood at 7.31 µg/mL. Further, the inhibition in data set [3] worked out at 92.6%.
Consider `O=C(O)c1cc(O)c(O)c(O)c1` [GALLIC ACID], for which the IC50 against Mushroom tyrosinase [4] was 1.53 µM; against Mushroom tyrosinase [13] it was 1.06 µM.
For `O=C(OC[C@H]1O[C@@H](OC(=O)c2cc(O)c(O)c(O)c2)[C@H](OC(=O)c2cc(O)c(O)c(O)c2)[C@@H](OC(=O)c2cc(O)c(O)c(O)c2)[C@@H]1OC(=O)c1cc(O)c(O)c(O)c1)c1cc(O)c(O)c(O)c1` [PENTAGALLOYL GLUCOSE], the IC50 against Mushroom tyrosinase [4] and against Mushroom tyrosinase [13] was 0.02 µM in each case.
Turning to `C=C(CC[C@@H](C(=O)O)[C@H]1[C@H](O)C[C@@]2(C)C3=CC[C@@H](C(=C)C)[C@](C)(CCC(=O)O)C3=CC[C@]12C)C(C)C` [PORICOIC ACID A], the IC50 with B16 worked out at 48 µg/mL (≈ 96.3 µM). Moreover, the inhibition in data set [14] stood at 40.9%; in [15], 39.5%.
On to `COc1c(O[C@@H]2O[C@H](CO)[C@@H](O)[C@H](O)[C@H]2O)cc2occ(-c3ccc(O)cc3)c(=O)c2c1O` [TECTORIDIN], for which the IC50 turned out to be 2.62 µg/mL against Mushroom tyrosinase [12], 69.36 µg/mL (≈ 150 µM) in [10] and 135.31 µg/mL (≈ 293 µM) in [11].
As for `COc1c(O)cc2occ(-c3ccc(O)cc3)c(=O)c2c1O` [TECTORIGENIN], the IC50 turned out to be 1.39 µg/mL at Mushroom tyrosinase [12], 46.34 µg/mL (≈ 154 µM) in data set [10] and 45.6 µg/mL (≈ 152 µM) in data set [11].
`Cc1ccc(C(C)C)c(O)c1` [THYMOL] returned an IC50 with B16-F10 [16] of 160 µM.
`C/C1=C\CC(C)(C)/C=C/C(=O)/C(C)=C/CC1` [ZERUMBONE]: the Activity in the data set on B16-F10 [17] amounted to 40%.
